Experimental data: patent US5741476A, “Polyhydric phenol compounds” (Mallinckrodt Medical, Inc., priority 1992, dated 1998)
Like-named read-outs stand apart in the source and are kept apart here.

What was measured:
[1] = in vivo distribution in rats
Protocol: The in vivo distribution in rats is determined by injecting approx. 10 μCi of the compound to be evaluated into the tail vein of the test animals. The test animals are sacrificed at appropriate time intervals after injection and the radioactivity of the organs of interest is measured by gamma scintillation counting.

YAK1 mice lymphoma cells = assay: binding of 3-125I-phloretin to YAK1 lymphoma cells
Protocol: (§1) In order to be able to compare the binding to cancer cells with the binding to normal cells, the following experiments are carried out. Binding to certain cancer cells, viz. YAK1 mice lymphoma cells (10^6 cells/ml incubation medium) is compared with binding to erythrocytes of a young healthy person (10^6 cells/ml incubation medium), because erythocytes are typical reference cells for glucose transport studies.
(§2) The incubation media are respectively:
(§3) RPMI-buffer pH=8; 11 mM in glucose, and
(§4) RPMI buffer/0.9% NaCl: 1/1.
(§5) Each 1 ml essay contains 5% of foetal calf serum and is spiked (50 μl) with 3-^125 I-phloretin (initial activity is measured).
(§6) After 15 min incubation at 37° C., the suspension is centrifuged and the precipitate is resuspended with 1 ml cold buffer which is discarded after a second centrifugation. The final radioactive precipitate is suspended in 1 ml water and measured. The bound radioactivity is related to the initial activity.

erythrocytes = assay: binding of 3-125I-phloretin to erythrocytes; set-up: species or system human
Protocol: as §1, §2, §3, §4, §5, §6
Saturation binding of 3-^125 I-phloretin to 5.10^6 erythrocytes is performed in RPMI-buffer and Tris-buffer of pH 8. The binding experiments are performed at pH 8, because this is the pH of the RPMI buffer needed for optimum YAK1 cells growth. Incubation for 15 min at 37° C. Inhibition is studied by pre-incubation (15 min, 37° C.) of the erythrocytes in buffer containing 2.10^-4 M 3-Br-phloretin. After centrifugation, the Br-phloretin-containing solution is discarded and the precipitate washed with ice-cooled buffer. After a second centrifugation, the supernatant is discarded and the cells are resuspended in buffer containing 3^125 I-phloretin. After incubation for 15 min at 37° C., the same above procedure is applied. Phloretin is a weak acid (pK is approx. 7.3); only the uncharged (non-dissociated) form inhibits red cell glucose transport (Jennings et al., see above). Therefore the values mentioned hereinafter are corrected for dissociation.
When starting from small amounts (0.1×10^-10 M) N.C.A. 3-^125 I-phloretin up to higher concentrations and C.A. conditions (3-Br-phloretin used as analogue), two types of binding are observed: […]

hexokinase = assay: hexokinase-model: inhibition of hexokinase-catalysed 6-phosphorilation of glucose; type: biochemical
Text: In vitro evaluation of 3-halo-phloretin compounds using the "hexokinase-model"
The "hexokinase-model" is used as a model system for the glucose-transport proteins, which play a paramount role in the glucose metabolism.
The mechanism of the glucose--glucosetransportprotein interaction and following transport through the cell membrane of glucose, as described in literature (Scientific American, January 1992, p. 32-39; Biochemistry, Vol. 28, No. 20, 1989, p. 8221-8227), and the induced-fit model described for glucose 6-phosphorilation by hexokinase (Cell Biology, 1989) show a certain analogy which let to assume, that the interaction between a potential glucose transport inhibitor with hexokinase can be a valuable in vitro model if this inhibition is competitive for glucose.
The substitution of halogen such as a bromine or iodine atom on the 3-position of the 4-hydroxyl-phenylpropion part of phloretin increases the inhibition potency as shown as follows:
Inhibition of hexokinase catalyses 6-phosphorilation of glucose by deoxyglucose, phloretin and 3-bromo-phloretin.

[2] = binding in human whole blood (RB/plasma distribution, reversibility); type: in vitro ADME; settings: for blood plasma ratio at 0.25 h / blood plasma ratio: human; for blood plasma ratio at 0.25 h: 37° C., 15 min, read-out: RB/plasma ratio after re-equilibration
Protocol: In vitro experiments: binding in human whole blood
Jennings et al. [J. Gen. Phys., 1967, 67, 381] have reported the binding of phloretin to whole red blood cells. Their results let to assume that phloretin should enter the erythrocytes and bind to haemoglobine. This should mean that a phloretin-based radiotracer should not be suitable for in vivo use. Therefore the reversibility of the binding is checked. For this purpose 3-^123 I-phloretin is added to whole heparinised blood. This is centrifuged, yielding serum S-*I and red blood portion RB-*I. S-*I and non-radioactive RB (1/1) and respectively non-radioactive S and RB-*I (1/1) are incubated at 37° C. for 15 min and centrifuged. The radioactivity of all the weighed aliquots is measured in a well NaI(T1) detector.

[3] = weak acid; cited from earlier work

O=C(CCc1ccc(O)c(I)c1)c1c(O)cc(O)cc1O [3-*I-phloretin]
saturability of uptake in heart and muscle ([1]; decreased uptake in the presence of Br-phloretin): apparently saturable | uptake in the lungs (L/B) ([1]; i.v. tail vein, N.C.A. and C.A.): high uptake in the lungs

O=C(CCc1ccc(O)c(Br)c1)c1c(O)cc(O)cc1O [3-Br--phloretin, 3-bromophloretin]
decreased binding of 3-125I-phloretin (YAK1 mice lymphoma cells; co-incubation of 3-Br-phloretin, YAK1 cells, 15 min): 30% | bound/free value of 3-125I-phloretin (erythrocytes; erythrocytes pre-incubated with 2×10^-4 M 3-Br-phloretin, blank 0.193, average of 5 experiments): 0.081 | inhibition of 3-125I-phloretin binding (erythrocytes; pre-incubation with 2×10^-4 M 3-Br-phloretin, compared with blank): 58%

O=C(CCc1ccc(O)c(I)c1)c1c(O)cc(O)cc1O [3-I--phloretin, 3-I-phloretin]
potency as hexokinase inhibitor relative to the original phloretin (hexokinase; versus phloretin): approx. 2 times

O=C(CCc1ccc(O)c([125I])c1)c1c(O)cc(O)cc1O [3-^125 I-phloretin]
bound/free ratio (YAK1 mice lymphoma cells; N.C.A., 10^6 YAK1 cells, 15 min 37° C., average of at least 20 experiments): 0.048 | increase of uptake in YAK1 lymphoma cancer cells as compared to erythrocytes (YAK1 mice lymphoma cells; YAK1 versus erythrocytes): > 2 factor | bound/free ratio (erythrocytes; N.C.A., 10^6 erythrocytes, 15 min 37° C., average of at least 20 experiments): 0.021 | influence of glucose on binding (erythrocytes; presence of 3.10^-2 -5.10^-3 M glucose): hardly influences the binding | Bmax (erythrocytes; saturation binding 0.1 to 1.2 10^-10 M, Scatchard plot, pH 8): 4.7×10^-15 mol/10^6 erythrocytee | Kd (erythrocytes; saturation binding 0.1 to 1.2 10^-10 M, Scatchard plot, pH 8, 15 min 37° C., corrected for dissociation, read-out: apparent Kd): 0.08 nM | reversibility of binding to plasma-proteins and RB [2]: bound reversibly | blood plasma ratio at 0.25 h ([2]; N.C.A. radioactivity bound to RB, re-equilibrated with non-radioactive plasma): 0.15 | blood plasma ratio at 0.25 h ([2]; N.C.A. radioactivity bound to plasma, re-equilibrated with non-radioactive RB): 0.13 | blood plasma ratio ([2]; in the presence of non-radioactive Br-phloretin or phloretin): 0.32 | blood plasma ratio ([2]; non-carrier-added (N.C.A.) conditions): 0.215

O=C(CCc1ccc(O)cc1)c1c(O)cc(O)cc1O [phloretin, reference compound]
pK [3]: approx. 7.3 | type of inhibition of hexokinase activity (hexokinase; Lineweaver-Burck plots, versus glucose): competitive
